Measured values: patent US11912665B1, “4-(2,4,5-tris(4-chlorophenyl)-1H-imidazol-1-yl)butanoic acid as an antimicrobial compound” (KING FAISAL UNIVERSITY, priority 2023, dated 2024)

Experiments:
Type in all cases: cell-based
Escherichia coli = assay: agar plate disc-diffusion, antibacterial activity; settings: nutrient agar, 37° C., 48 hours, DMSO zone subtracted; for inhibition zone Escherichia coli A: A = concentration of comp. = 10,000 μL; for inhibition zone Escherichia coli B: B = concentration of comp. = 30,000 μL; for inhibition zone Escherichia coli C: C = concentration of comp. = 50,000 μL
Procedure: (§1) The agar plate disc-diffusion method was applied. Sterilized filter papers (6 mm in diameter) were wetted with 10 μL of a solution of 4-(2,4,5-tris(4-chlorophenyl)-1H-imidazol-1-yl)butanoic acid (V) to be tested, containing 10 mg/mL in DMSO, and the discs were allowed to air dry. The discs were then placed onto the surface of agar plates (nutrient agar for bacteria and Sabouraud's dextrose agar for fungi) seeded with the test organism. Each plate contained 15 mL of the agar medium, previously seeded with 0.2 mL of the broth culture of each organism pregrown for 18 hours. The plates were incubated at 37° C. for 48 hours, and 72 hours for fungi. The inhibition zones were measured in millimeters (mm). Discs impregnated with DMSO were used as a control, and its inhibition zone was subtracted from the tested compound actual inhibition zone.

Pseudomonas aeruginosa = assay: agar plate disc-diffusion, antibacterial activity; settings: nutrient agar, 37° C., 48 hours, DMSO zone subtracted; for inhibition zone Pseudomonas aeruginosa A: A = concentration of comp. = 10 mg/mL; for inhibition zone Pseudomonas aeruginosa B: B = concentration of comp. = 30,000 μL; for inhibition zone Pseudomonas aeruginosa C: C = concentration of comp. = 50,000 μL
Procedure: as §1

[1] = tested on: Chrysosporium keratinophilum; assay: agar plate disc-diffusion, antifungal activity; settings: Sabouraud's dextrose agar, 72 hours, DMSO zone subtracted; for inhibition zone Chrysosporium keratinophilum A: A = concentration of comp. = 10,000 μL; for inhibition zone Chrysosporium keratinophilum B: B = concentration of comp. = 30,000 μL; for inhibition zone Chrysosporium keratinophilum C: C = concentration of comp. = 50,000 μL
Procedure: as §1, with “Sterilized filter papers (6 mm in diameter) were wetted with 10 μL of a solution of 4-(2,4,5-tris(4-chlorophenyl)-1H-imidazol-1-yl)butanoic acid (V) to be tested, containing 10 mg/mL in DMSO, and the discs were allowed to air dry.” left out

Aspergillus flavus = assay: agar plate disc-diffusion, antifungal activity; settings: Sabouraud's dextrose agar, 72 hours, DMSO zone subtracted; for inhibition zone Aspergillus flavus A: A = concentration of comp. = 10,000 μL; for inhibition zone Aspergillus flavus B: B = concentration of comp. = 30,000 μL; for inhibition zone Aspergillus flavus C: C = concentration of comp. = 50,000 μL
Procedure: as §1, with “Sterilized filter papers (6 mm in diameter) were wetted with 10 μL of a solution of 4-(2,4,5-tris(4-chlorophenyl)-1H-imidazol-1-yl)butanoic acid (V) to be tested, containing 10 mg/mL in DMSO, and the discs were allowed to air dry.” left out

Bacillus cereus = assay: agar plate disc-diffusion, antibacterial activity; settings: nutrient agar, 37° C., 48 hours, DMSO zone subtracted; for inhibition zone Bacillus Cereus B: B = concentration of comp. = 30,000 μL; for inhibition zone Bacillus Cereus C: C = concentration of comp. = 50,000 μL
Procedure: as §1, with “Sterilized filter papers (6 mm in diameter) were wetted with 10 μL of a solution of 4-(2,4,5-tris(4-chlorophenyl)-1H-imidazol-1-yl)butanoic acid (V) to be tested, containing 10 mg/mL in DMSO, and the discs were allowed to air dry.” left out

Staphylococcus aureus = assay: agar plate disc-diffusion, antibacterial activity; settings: nutrient agar, 37° C., 48 hours, DMSO zone subtracted; for inhibition zone Staphylococcus aureus A: A = concentration of comp. = 10,000 μL; for inhibition zone Staphylococcus aureus B: B = concentration of comp. = 30,000 μL; for inhibition zone Staphylococcus aureus C: C = concentration of comp. = 50,000 μL
Procedure: as §1, with “Sterilized filter papers (6 mm in diameter) were wetted with 10 μL of a solution of 4-(2,4,5-tris(4-chlorophenyl)-1H-imidazol-1-yl)butanoic acid (V) to be tested, containing 10 mg/mL in DMSO, and the discs were allowed to air dry.” left out

Row | Compound | inhibition zone Escherichia coli A (Escherichia coli) [mm] | inhibition zone Escherichia coli B (Escherichia coli) [mm] | inhibition zone Escherichia coli C (Escherichia coli) [mm] | inhibition zone Pseudomonas aeruginosa A (Pseudomonas aeruginosa) [mm] | inhibition zone Pseudomonas aeruginosa B (Pseudomonas aeruginosa) [mm] | inhibition zone Pseudomonas aeruginosa C (Pseudomonas aeruginosa) [mm] | inhibition zone Chrysosporium keratinophilum A [1] [mm] | inhibition zone Chrysosporium keratinophilum B [1] [mm] | inhibition zone Chrysosporium keratinophilum C [1] [mm] | inhibition zone Aspergillus flavus A (Aspergillus flavus) [mm] | inhibition zone Aspergillus flavus B (Aspergillus flavus) [mm] | inhibition zone Aspergillus flavus C (Aspergillus flavus) [mm] | inhibition zone Bacillus Cereus A (Bacillus cereus) [mm] | inhibition zone Bacillus Cereus B (Bacillus cereus) [mm] | inhibition zone Bacillus Cereus C (Bacillus cereus) [mm] | inhibition zone Staphylococcus aureus A (Staphylococcus aureus) [mm] | inhibition zone Staphylococcus aureus B (Staphylococcus aureus) [mm] | inhibition zone Staphylococcus aureus C (Staphylococcus aureus) [mm]
1 | O=C(O)c1cn(C2CC2)c2cc(N3CCNCC3)c(F)cc2c1=O [Cip., ciprofloxacin] | 30 | 39 | 60 | 29 | 30 | 53 | 29 | 30 | 53 | 29 | 30 | 42 | 29 | 31 | 42 | 42 | 44 | 53
2 | O=C(O)CCCn1c(-c2ccc(Cl)cc2)nc(-c2ccc(Cl)cc2)c1-c1ccc(Cl)cc1 [V, 4-(2,4,5-tris(4-chlorophenyl)-1H-imidazol-1-yl)butanoic acid] | 24 | 35 | 51 | 26 | 31 | 46 | 25 | 28 | 49 | 16 | 22 | 36 | 19 | 25 | 40 | 14 | 19 | 26
